US20100216779A1 (GLAXOSMITHKLINE LLC, priority 2007, published 2010)

Tested on: various cell lines of different tumor origins
Test: Inhibition of cell proliferation, InCell Analyzer assay
Format: cell-based
Protocol: C. Inhibition of Cell Proliferation
For InCell Analyser assay, various cell lines of different tumor origins were grown to 70-80% confluency in appropriate culture media containing 10% fetal bovine serum at 37° C. in a 5% CO2 incubator. On day-1, cells were seeded at 2 densities in 384-well plates and incubated at 37° C. overnight. Stock compound plates were prepared in advance which contained dimethyl sulfoxide (DMSO) alone and a 9-point half-log decreasing dose range of the compound of Example 22 in DMSO. The compound plates were stored at −80° C. and each plate was only thawed once and used. On day 0, the main assay plates received compound or DMSO via a sonic delivery system (ECHO). The highest final concentration of compound of the dose range in the culture plates was 10 uM. These plates were cultured at 37° C. for 3 days. […] On day 3, the compound treated plates were stained and fixed to measure proliferation, apoptosis, and mitotic index using an InCell1000 analyser. A nuclear stain was used to identify cells in the wells. By counting the number of nuclei, the proliferation index of compound treated groups were calculated as a percentage relative to the DMSO control, which was set to 100%. The IC50 values were calculated using model 205 in ExcelFit.

Compound: COc1cc(N2CCC(N3CCCCC3)CC2)ccc1Nc1nccc(-c2c(-c3cccc(C(=O)Nc4c(F)cccc4F)c3)nc3ccccn23)n1 [Example 22, 3-[3-(2-{[4-(1,4′-bipiperidin-1′-yl)-2-(methyloxy)phenyl]amino}-4-pyrimidinyl)imidazo[1,2-a]pyridin-2-yl]-N-(2,6-difluorophenyl)benzamide]
- IC50 (5637, Bladder): > 5 µM
- IC50 (A7, Skin): 1 to 5 µM
- IC50 (AGS, Stomach): 1 to 5 µM
- IC50 (B-cell, BC-1, lymphoma - B cell unspecified): 1 to 5 µM
- IC50 (B-cell, BC-2, lymphoma - B cell unspecified): 1 to 5 µM
- IC50 (B-cell, BC-3, lymphoma - B cell unspecified): 1 to 5 µM
- IC50 (B-cell, DB, lymphoma - diffuse large B cell): 1 to 5 µM
- IC50 (C3A, Liver): 1 to 5 µM
- IC50 (C32TG, Skin): 1 to 5 µM
- IC50 (C-4I, Cervix): 1 to 5 µM
- IC50 (CEM/C1, CEM/C1, acute lymphoblastic leukaemia): > 5 µM
- IC50 (CESS, AML): > 5 µM
- IC50 (CML-T1, CML-T1, CML blast phase): < 1 µM
- IC50 (COLO 704, COLO-704, Ovary): > 5 µM
- IC50 (CRO-AP5, CRO-AP5, lymphoma - B cell unspecified): > 5 µM
- IC50 (DK-MG, glioma): 1 to 5 µM
- IC50 (EM-2, CML blast phase): > 5 µM
- IC50 (ES2, Ovary): 1 to 5 µM
- IC50 (GCT, Sarcoma): 1 to 5 µM
- IC50 (H4, glioma): > 5 µM
- IC50 (HN5, H&N): 1 to 5 µM
- IC50 (HOS, Sarcoma): < 1 µM
- IC50 (HT-3, Cervix): > 5 µM
- IC50 (Homo sapiens, 639-V, Bladder): 1 to 5 µM
- IC50 (Homo sapiens, 647-V, Bladder): 1 to 5 µM
- IC50 (Homo sapiens, 769-P, Kidney): 1 to 5 µM
- IC50 (Homo sapiens, 786-0, 786-0, Kidney): 1 to 5 µM
- IC50 (Homo sapiens, A101D, Skin): 1 to 5 µM
- IC50 (Homo sapiens, A 172, A172, glioma): 1 to 5 µM
- IC50 (Homo sapiens, A204, A204, Sarcoma - rhabdomyosarcoma): 1 to 5 µM
- IC50 (Homo sapiens, A498, A-498, Kidney): 1 to 5 µM
- IC50 (Homo sapiens, A673, A673, Sarcoma): < 1 µM
- IC50 (Homo sapiens, A2780, A2780, Ovary): < 1 µM
- IC50 (Homo sapiens, A-375, A375, Skin): 1 to 5 µM
- IC50 (Homo sapiens, A-427, A427, Lung): 1 to 5 µM
- IC50 (Homo sapiens, A-431, A-431, Skin): < 1 µM
- IC50 (Homo sapiens, ACHN, Kidney): 1 to 5 µM
- IC50 (Homo sapiens, AN3-CA, AN3CA, Uterus): 1 to 5 µM
- IC50 (Homo sapiens, ARH-77, ARH-77, Myeloma - plasma cell): 1 to 5 µM
- IC50 (Homo sapiens, ASPC1, AsPC-1, Pancreas): < 1 µM
- IC50 (Homo sapiens, BE(2)-C, BE(2)C, Brain): < 1 µM
- IC50 (Homo sapiens, BFTC-905, BFTC-905, Bladder): < 1 µM
- IC50 (Homo sapiens, BHT-101, BHT-101, Thyroid): > 5 µM
- IC50 (Homo sapiens, BPH-1, BPH1, Prostate): 1 to 5 µM
- IC50 (Homo sapiens, BT-20, BT-20, Breast): 1 to 5 µM
- IC50 (Homo sapiens, BT-474, BT474, Breast): 1 to 5 µM
- IC50 (Homo sapiens, BV-173, BV-173, CML blast phase): 1 to 5 µM
- IC50 (Homo sapiens, BXPC-3, BxPC-3, Pancreas): > 5 µM
- IC50 (Homo sapiens, BeWo, Placenta): 1 to 5 µM
- IC50 (Homo sapiens, C-4-II, C-4II, Cervix): 1 to 5 µM
- IC50 (Homo sapiens, C-33-A, C-33A, Cervix): 1 to 5 µM
- IC50 (Homo sapiens, CAKI-1, Caki-1, Kidney): > 5 µM
- IC50 (Homo sapiens, CAKI-2, Caki-2, Kidney): 1 to 5 µM
- IC50 (Homo sapiens, CAL-27, Cal27, H&N): > 5 µM
- IC50 (Homo sapiens, CAL-54, CAL-54, Kidney): 1 to 5 µM
- IC50 (Homo sapiens, CAL-62, CAL-62, Thyroid): 1 to 5 µM
- IC50 (Homo sapiens, CAPAN-1, Capan-1, Pancreas): < 1 µM
- IC50 (Homo sapiens, CCF-STTG1, CCF-STTG1, glioma): 1 to 5 µM
- IC50 (Homo sapiens, CGTH-W-1, CGTH-W-1, Thyroid): 1 to 5 µM
- IC50 (Homo sapiens, CHL-1, CHL-1, Skin): 1 to 5 µM
- IC50 (Homo sapiens, CHP-212, CHP-212, neuroblastoma): < 1 µM
- IC50 (Homo sapiens, COLO-829, Colo-829, Skin): > 5 µM
- IC50 (Homo sapiens, CRO-AP2, CRO-AP2, lymphoma - B cell unspecified): 1 to 5 µM
- IC50 (Homo sapiens, Caov-3, CAOV-3, Ovary): 1 to 5 µM
- IC50 (Homo sapiens, Capan-2, Capan-2, Pancreas): 1 to 5 µM
- IC50 (Homo sapiens, D283 Med, D283Med, medulloblastoma): 1 to 5 µM
- IC50 (Homo sapiens, DBTRG-05MG, glioma): > 5 µM
- IC50 (Homo sapiens, DU-4475, DU4475, Breast): 1 to 5 µM
- IC50 (Homo sapiens, Detroit 562, Detroit562, H&N): 1 to 5 µM
- IC50 (Homo sapiens, DoTc2-4510, DoTc2-4510, Cervix): > 5 µM
- IC50 (Homo sapiens, EFM-19, EFM-19, Breast): 1 to 5 µM
- IC50 (Homo sapiens, EKVX, Lung): 1 to 5 µM
- IC50 (Homo sapiens, FaDu, H&N): 1 to 5 µM
- IC50 (Homo sapiens, G-401, G-401, kidney): 1 to 5 µM
- IC50 (Homo sapiens, G-402, G-402, Kidney): 1 to 5 µM
- IC50 (Homo sapiens, GDM-1, GDM-1, AML): < 1 µM
- IC50 (Homo sapiens, HCC38, HCC38, Breast): 1 to 5 µM
- IC50 (Homo sapiens, HCC70, HCC70, Breast): 1 to 5 µM
- IC50 (Homo sapiens, HCC1143, HCC1143, Breast): 1 to 5 µM
- IC50 (Homo sapiens, HCC1395, HCC1395, Breast): 1 to 5 µM
- IC50 (Homo sapiens, HCC1937, HCC1937, Breast): > 5 µM
- IC50 (Homo sapiens, HCC1954, HCC1954, Breast): 1 to 5 µM
- IC50 (Homo sapiens, HCC2157, HCC2157, Breast): > 5 µM
- IC50 (Homo sapiens, HCC2218, HCC2218, Breast): > 5 µM
- IC50 (Homo sapiens, HCC 2998, HCC-2998, Colon): 1 to 5 µM
- IC50 (Homo sapiens, HEC-1-A, Uterus): > 5 µM
- IC50 (Homo sapiens, HEC-1B, HEC-1-B, Uterus): 1 to 5 µM
- IC50 (Homo sapiens, HEL 92.1.7, HEL-92.1.7, erythroleukemia): > 5 µM
- IC50 (Homo sapiens, HMCB, Skin): 1 to 5 µM
- IC50 (Homo sapiens, HOP-62, HOP-62, Lung): > 5 µM
- IC50 (Homo sapiens, HOP-92, HOP-92, Lung): 1 to 5 µM
- IC50 (Homo sapiens, HPAC, Pancreas): < 1 µM
- IC50 (Homo sapiens, HPAF-II, HPAFII, Pancreas): > 5 µM
- IC50 (Homo sapiens, HT1197, HT1197, Bladder): > 5 µM
- IC50 (Homo sapiens, HT-29, HT-29, Colon): < 1 µM
- IC50 (Homo sapiens, HT-1080, HT-1080, Sarcoma - fibrosarcoma): < 1 µM
- IC50 (Homo sapiens, HT-1376, HT1376, Bladder): > 5 µM
- IC50 (Homo sapiens, HeLa, Cervix): > 5 µM
- IC50 (Homo sapiens, Hep3B, Liver): 1 to 5 µM
- IC50 (Homo sapiens, HepG2, HepG2, Liver): 1 to 5 µM
- IC50 (Homo sapiens, Hs746T, Stomach): > 5 µM
- IC50 (Homo sapiens, HuP-T4, HuP-T4, Pancreas): > 5 µM
- IC50 (Homo sapiens, HuT78, Hut78, lymphoma - cutaneous T cell): 1 to 5 µM
- IC50 (Homo sapiens, IGROV-1, IGROV1, Ovary): < 1 µM
- IC50 (Homo sapiens, J-RT3-T3-5, J.RT3-T3.5, acute lymphoblastic leukaemia): 1 to 5 µM
- IC50 (Homo sapiens, JEG-3, JEG-3, Placenta): < 1 µM
- IC50 (Homo sapiens, K562, K-562, CML): > 5 µM
- IC50 (Homo sapiens, KATO III, KATOIII, Stomach): > 5 µM
- IC50 (Homo sapiens, KM12, KM12, Colon): > 5 µM
- IC50 (Homo sapiens, LOX IMVI, Skin): > 5 µM
- IC50 (Homo sapiens, LS174T, Colon): 1 to 5 µM
- IC50 (Homo sapiens, LS-1034, LS1034, Colon): < 1 µM
- IC50 (Homo sapiens, MC-IXC, neuroblastoma): < 1 µM
- IC50 (Homo sapiens, MCF7, MCF7, Breast): < 1 µM
- IC50 (Homo sapiens, MCF-10A, MCF10a, Breast (Normal)): < 1 µM
- IC50 (Homo sapiens, MDA-MB-175-VII, Breast): 1 to 5 µM
- IC50 (Homo sapiens, MDA-MB-231, MDA-MB-231, Breast): 1 to 5 µM
- IC50 (Homo sapiens, MDA-MB-435, MDA-MB-435, Breast (Melanoma)): 1 to 5 µM
- IC50 (Homo sapiens, MDA-MB-453, MDA-MB-453, Breast): 1 to 5 µM
- IC50 (Homo sapiens, MDA-MB-468, MDA-MB-468, Breast): 1 to 5 µM
- IC50 (Homo sapiens, MES-SA, Sarcoma): > 5 µM
- IC50 (Homo sapiens, MIA PaCa-2, MiaPaCa, Pancreas): < 1 µM
- IC50 (Homo sapiens, MOLT-16, MOLT-16, acute lymphoblastic leukaemia): 1 to 5 µM
- IC50 (Homo sapiens, MV4-11, MV-4-11, acute leukaemia of ambiguous lineage): 1 to 5 µM
- IC50 (Homo sapiens, Malme-3M, Skin): > 5 µM
- IC50 (Homo sapiens, NCI-H69, NCI-H69, Lung): 1 to 5 µM
- IC50 (Homo sapiens, NCI-H82, NCI-H82, Lung): 1 to 5 µM
- IC50 (Homo sapiens, NCI-H146, NCI-H146, Lung): > 5 µM
- IC50 (Homo sapiens, NCI-H209, NCI-H209, Lung): 1 to 5 µM
